Activity calls are given as the source filed them.
How the values were obtained:
[1] = HEK-293T viability loss after treatment – luminescence, T-cell screen hits, cytotoxicity control for TCR NF-kB inhibitor project, dose response (AID 489026); type: functional, cell-based;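 further: cells exposed to compound about 14 hours before the viability readout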
Coagulation factor XII = molecular target: T1, Coagulation factor XII (Homo sapiens, UniProt P00748); type: functional;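 further: activated factor XIIa alpha cleaving a fluorogenic AMC peptide substrate; inhibitor potency from loss of enzyme activity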
T1 sequence (P00748 whole entry): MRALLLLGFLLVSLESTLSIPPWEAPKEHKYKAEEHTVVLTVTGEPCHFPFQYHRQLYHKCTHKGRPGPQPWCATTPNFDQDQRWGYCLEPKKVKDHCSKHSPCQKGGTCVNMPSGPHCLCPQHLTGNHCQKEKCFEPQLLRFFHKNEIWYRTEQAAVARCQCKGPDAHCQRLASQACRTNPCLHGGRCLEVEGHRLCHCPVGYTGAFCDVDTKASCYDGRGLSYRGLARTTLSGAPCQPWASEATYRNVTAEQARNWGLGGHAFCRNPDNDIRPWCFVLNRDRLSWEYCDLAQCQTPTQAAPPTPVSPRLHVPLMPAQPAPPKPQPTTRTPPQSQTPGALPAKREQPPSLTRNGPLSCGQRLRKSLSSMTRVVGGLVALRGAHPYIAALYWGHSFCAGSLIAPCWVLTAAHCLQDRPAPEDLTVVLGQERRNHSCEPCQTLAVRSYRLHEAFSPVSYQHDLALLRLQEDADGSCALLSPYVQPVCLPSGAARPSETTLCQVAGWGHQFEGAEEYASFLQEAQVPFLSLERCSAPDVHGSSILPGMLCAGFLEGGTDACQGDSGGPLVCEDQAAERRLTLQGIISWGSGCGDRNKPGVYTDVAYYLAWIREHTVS

Cytochrome P450 3A4 = Cytochrome P450 3A4 (Homo sapiens, UniProt P08684); details: Potency;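 further: confirmatory qHTS run detecting inhibitors and substrates of CYP3A4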
Chain of Cytochrome P450 3A4 (P08684 whole entry): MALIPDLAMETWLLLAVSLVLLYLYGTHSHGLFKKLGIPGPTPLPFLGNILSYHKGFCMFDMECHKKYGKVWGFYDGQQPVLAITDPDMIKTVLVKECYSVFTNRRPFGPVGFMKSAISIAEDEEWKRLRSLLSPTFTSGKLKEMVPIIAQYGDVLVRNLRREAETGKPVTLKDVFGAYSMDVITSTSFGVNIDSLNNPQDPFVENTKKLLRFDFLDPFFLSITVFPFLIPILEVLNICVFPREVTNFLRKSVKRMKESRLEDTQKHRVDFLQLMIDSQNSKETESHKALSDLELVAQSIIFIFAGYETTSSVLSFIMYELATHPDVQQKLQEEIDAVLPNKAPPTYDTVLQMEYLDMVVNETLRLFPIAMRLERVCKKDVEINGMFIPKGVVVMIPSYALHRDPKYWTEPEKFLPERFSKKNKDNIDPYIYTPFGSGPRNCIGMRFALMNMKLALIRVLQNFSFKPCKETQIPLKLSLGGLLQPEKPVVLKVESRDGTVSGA

Estrogen receptor = molecular target: T2, Estrogen receptor (Homo sapiens, UniProt P03372);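 further: potency for inhibiting coactivator peptide recruitment to the receptor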
T2 sequence (P03372 whole entry): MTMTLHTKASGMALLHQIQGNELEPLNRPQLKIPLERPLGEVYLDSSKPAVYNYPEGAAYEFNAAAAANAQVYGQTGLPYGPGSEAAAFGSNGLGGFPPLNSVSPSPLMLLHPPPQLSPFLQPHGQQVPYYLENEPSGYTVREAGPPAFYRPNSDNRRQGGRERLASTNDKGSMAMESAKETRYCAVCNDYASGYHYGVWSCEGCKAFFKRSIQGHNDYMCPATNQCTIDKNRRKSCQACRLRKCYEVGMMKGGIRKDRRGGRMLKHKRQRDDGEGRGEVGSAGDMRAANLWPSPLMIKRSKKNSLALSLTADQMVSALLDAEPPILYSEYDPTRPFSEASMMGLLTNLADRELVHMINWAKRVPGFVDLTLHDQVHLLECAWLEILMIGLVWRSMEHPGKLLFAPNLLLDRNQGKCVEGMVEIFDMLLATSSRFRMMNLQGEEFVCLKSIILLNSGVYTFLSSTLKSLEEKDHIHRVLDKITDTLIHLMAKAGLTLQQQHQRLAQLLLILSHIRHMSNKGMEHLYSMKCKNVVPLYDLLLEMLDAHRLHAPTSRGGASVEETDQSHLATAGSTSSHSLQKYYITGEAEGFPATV

Escherichia coli = test: microbe, parasite or virus in culture
Estrogen receptor beta [2] = molecular target: T3, Estrogen receptor beta (Homo sapiens, UniProt Q92731); test: blockers of SRC-3 recruitment to ERβ – biochemical, ELISA, streptavidin-HRP readout, orthogonal assay, confirmation (AID 1060)
T3 sequence (Q92731 whole entry): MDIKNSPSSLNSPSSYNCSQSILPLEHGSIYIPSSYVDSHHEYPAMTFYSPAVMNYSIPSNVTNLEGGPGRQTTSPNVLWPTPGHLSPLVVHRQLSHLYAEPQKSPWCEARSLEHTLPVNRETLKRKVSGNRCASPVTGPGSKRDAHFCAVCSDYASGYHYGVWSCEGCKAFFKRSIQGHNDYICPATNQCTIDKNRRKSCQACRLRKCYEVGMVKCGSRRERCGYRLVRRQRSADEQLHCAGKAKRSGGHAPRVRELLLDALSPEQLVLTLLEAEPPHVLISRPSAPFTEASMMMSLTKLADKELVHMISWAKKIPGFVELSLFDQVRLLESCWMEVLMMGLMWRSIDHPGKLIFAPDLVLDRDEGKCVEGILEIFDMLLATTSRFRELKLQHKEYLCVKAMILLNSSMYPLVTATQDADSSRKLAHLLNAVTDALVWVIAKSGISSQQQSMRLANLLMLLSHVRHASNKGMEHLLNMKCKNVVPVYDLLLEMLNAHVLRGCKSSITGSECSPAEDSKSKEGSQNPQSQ

Estrogen receptor beta [3] = molecular target: T3, Estrogen receptor beta
[4] = HEK-293T cell viability reduction – luminescence, B-cell screen hits, cytotoxicity control for BCR NF-kB inhibitor project, dose response (AID 489021); type: functional, cell-based;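 further: HEK-293T cells carrying an NF-kB luciferase reporter; cells exposed to compound for about 14 hours before viability readout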
INS1 = test: INS-1E survival protection against cytokine death – cell-based, luminescence, retest, dose response (AID 449756); type: functional; details: Rattus norvegicus;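 further: cell death triggered by IL-1 beta plus TNF-alpha plus IFN-gamma mixture; protective hits raise ATP signal compared with cytokine alone wells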
[5] = molecular target: Voltage-dependent T-type calcium channel subunit alpha-1H (Homo sapiens, UniProt O95180); type: functional;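 further: channel activity triggered by adding a high calcium stimulation buffer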
Chain of Voltage-dependent T-type calcium channel subunit alpha-1H (O95180 whole entry): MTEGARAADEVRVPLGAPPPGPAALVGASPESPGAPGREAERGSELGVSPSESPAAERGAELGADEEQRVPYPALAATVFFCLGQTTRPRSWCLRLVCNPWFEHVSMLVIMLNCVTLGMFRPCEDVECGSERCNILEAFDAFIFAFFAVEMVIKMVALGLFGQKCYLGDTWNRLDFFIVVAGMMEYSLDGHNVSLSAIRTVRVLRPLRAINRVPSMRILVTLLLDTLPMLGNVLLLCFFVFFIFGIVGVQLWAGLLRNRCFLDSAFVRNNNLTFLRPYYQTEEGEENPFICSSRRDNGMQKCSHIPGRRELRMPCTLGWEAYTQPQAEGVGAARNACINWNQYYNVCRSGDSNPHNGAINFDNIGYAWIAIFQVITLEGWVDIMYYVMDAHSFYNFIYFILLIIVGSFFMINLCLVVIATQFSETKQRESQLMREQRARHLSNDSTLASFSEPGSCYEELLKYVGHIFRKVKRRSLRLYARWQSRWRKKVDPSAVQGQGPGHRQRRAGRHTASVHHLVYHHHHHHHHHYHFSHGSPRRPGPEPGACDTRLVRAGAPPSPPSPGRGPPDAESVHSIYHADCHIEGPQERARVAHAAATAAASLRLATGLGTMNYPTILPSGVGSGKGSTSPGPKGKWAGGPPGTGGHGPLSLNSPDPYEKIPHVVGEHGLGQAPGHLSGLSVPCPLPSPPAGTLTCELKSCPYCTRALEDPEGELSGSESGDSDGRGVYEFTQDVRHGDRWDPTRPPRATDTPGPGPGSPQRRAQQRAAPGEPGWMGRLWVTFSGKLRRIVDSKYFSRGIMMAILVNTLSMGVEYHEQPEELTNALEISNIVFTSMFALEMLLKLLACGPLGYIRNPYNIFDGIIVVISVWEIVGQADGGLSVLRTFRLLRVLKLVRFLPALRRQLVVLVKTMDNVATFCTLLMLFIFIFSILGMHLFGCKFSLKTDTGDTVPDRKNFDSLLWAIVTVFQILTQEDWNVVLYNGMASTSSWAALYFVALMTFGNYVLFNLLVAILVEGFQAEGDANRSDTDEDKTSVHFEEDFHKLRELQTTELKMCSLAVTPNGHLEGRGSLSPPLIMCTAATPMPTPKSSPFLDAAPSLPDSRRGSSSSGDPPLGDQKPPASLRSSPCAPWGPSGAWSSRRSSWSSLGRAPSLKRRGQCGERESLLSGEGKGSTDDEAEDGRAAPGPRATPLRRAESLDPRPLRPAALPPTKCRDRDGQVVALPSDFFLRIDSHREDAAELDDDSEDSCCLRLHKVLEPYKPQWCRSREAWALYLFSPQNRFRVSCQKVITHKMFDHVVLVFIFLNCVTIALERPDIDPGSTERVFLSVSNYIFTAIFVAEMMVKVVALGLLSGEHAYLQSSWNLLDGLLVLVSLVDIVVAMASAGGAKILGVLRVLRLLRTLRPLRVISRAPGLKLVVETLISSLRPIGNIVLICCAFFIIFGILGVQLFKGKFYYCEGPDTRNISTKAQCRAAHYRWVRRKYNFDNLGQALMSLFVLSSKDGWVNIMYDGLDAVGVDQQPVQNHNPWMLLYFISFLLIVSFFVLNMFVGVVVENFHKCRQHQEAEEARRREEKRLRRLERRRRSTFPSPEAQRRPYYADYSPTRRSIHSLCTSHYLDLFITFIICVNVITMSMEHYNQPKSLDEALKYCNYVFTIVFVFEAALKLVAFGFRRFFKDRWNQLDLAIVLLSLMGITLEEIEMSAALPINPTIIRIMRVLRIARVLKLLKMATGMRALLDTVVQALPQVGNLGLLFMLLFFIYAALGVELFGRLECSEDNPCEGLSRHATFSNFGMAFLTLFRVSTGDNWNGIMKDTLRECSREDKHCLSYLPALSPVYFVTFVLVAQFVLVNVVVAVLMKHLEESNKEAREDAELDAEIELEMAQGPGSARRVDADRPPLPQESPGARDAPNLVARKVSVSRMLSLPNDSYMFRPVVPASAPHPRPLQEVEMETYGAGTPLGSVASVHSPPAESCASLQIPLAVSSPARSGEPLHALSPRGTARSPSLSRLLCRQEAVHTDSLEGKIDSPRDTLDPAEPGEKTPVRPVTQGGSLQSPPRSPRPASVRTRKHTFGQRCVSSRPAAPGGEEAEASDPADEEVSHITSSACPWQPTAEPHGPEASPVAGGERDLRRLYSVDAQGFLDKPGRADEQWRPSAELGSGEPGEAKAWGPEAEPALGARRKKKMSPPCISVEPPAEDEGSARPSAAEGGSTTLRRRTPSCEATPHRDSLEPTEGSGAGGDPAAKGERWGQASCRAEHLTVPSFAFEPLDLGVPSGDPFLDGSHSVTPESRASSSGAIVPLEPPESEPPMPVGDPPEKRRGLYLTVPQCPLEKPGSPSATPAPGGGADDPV

SUMO-activating enzyme = SUMO-activating enzyme (Homo sapiens, UniProt Q9UBT2); test: blockers of UBC9-mediated SUMO conjugation – biochemical, AlphaScreen, SUMOylation inhibitor project, confirmation (AID 2018); type: functional
Chain of SUMO-activating enzyme (Q9UBE0 whole entry): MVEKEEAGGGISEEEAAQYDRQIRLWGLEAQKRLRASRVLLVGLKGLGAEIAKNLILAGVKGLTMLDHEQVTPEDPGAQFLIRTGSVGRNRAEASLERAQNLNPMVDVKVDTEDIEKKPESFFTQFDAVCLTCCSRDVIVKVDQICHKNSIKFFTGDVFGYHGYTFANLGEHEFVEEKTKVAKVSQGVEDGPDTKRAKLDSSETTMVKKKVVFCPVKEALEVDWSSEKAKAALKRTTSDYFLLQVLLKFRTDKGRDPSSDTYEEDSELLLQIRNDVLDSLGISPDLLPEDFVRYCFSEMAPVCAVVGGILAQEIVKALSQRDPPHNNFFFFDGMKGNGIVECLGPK
Chain of SUMO-activating enzyme (Q9UBT2 whole entry): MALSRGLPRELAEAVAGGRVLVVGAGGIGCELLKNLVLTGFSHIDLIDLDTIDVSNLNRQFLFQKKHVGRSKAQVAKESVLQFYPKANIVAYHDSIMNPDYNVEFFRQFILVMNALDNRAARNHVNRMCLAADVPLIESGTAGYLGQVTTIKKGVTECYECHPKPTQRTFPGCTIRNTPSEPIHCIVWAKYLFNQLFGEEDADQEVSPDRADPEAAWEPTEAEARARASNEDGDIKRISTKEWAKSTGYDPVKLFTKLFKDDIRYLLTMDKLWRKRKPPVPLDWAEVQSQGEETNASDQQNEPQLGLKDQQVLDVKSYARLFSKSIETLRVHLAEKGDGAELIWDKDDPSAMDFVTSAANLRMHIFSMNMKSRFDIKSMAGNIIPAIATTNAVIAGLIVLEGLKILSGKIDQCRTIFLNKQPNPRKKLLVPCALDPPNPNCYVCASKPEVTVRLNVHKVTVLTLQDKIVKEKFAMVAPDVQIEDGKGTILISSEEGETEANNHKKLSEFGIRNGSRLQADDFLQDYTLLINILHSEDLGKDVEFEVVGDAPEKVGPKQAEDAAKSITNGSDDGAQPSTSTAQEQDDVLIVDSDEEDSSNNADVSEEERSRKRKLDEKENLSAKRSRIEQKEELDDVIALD

[6] = molecular target: T4, Microphthalmia-associated transcription factor (Homo sapiens, UniProt O75030); test: reducers of TRPM1 reporter luminescence, concentration series – cell-based, SK-MEL-5, cherry-picked, set 3, MITF inhibitor project, dose response (AID 493073); type: functional;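 further: SK-MEL-5 melanoma cells with luciferase driven by the MITF target TRPM1 promoter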
T4 sequence (O75030 whole entry): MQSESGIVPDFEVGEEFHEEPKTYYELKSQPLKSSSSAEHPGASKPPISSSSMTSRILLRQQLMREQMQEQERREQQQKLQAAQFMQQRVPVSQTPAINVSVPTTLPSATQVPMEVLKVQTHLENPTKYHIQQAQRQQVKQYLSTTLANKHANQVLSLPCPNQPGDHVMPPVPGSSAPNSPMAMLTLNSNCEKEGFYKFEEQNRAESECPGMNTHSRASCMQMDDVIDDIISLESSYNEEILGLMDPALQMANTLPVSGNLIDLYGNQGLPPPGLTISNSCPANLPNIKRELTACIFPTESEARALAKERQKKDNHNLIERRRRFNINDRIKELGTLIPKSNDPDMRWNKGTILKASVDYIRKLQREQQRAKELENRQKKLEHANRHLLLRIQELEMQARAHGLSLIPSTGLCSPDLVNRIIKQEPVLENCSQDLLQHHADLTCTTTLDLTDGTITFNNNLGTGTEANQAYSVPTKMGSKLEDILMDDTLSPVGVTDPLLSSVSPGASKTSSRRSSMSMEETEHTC

BJ [7] = test: cells; type: functional, cell-based; details: Homo sapiens
[8] = DRD fibroblast viability loss – cell-based, non-viral oncogenic, luminescence, dose response (AID 1934); type: functional; details: Homo sapiens
BJ [9] = test: BJ-TERT fibroblast viability loss – cell-based, RAS-independent, luminescence, dose response (AID 1933); type: functional; details: Homo sapiens
[10] = molecular target: T5, Zinc finger protein mex-5 (Caenorhabditis elegans, UniProt Q9XUB2); test: potency of MEX-5 RNA-binding blockers – biochemical, C. elegans, fluorescence polarization, dose response (AID 1960)
T5 sequence (Q9XUB2 whole entry): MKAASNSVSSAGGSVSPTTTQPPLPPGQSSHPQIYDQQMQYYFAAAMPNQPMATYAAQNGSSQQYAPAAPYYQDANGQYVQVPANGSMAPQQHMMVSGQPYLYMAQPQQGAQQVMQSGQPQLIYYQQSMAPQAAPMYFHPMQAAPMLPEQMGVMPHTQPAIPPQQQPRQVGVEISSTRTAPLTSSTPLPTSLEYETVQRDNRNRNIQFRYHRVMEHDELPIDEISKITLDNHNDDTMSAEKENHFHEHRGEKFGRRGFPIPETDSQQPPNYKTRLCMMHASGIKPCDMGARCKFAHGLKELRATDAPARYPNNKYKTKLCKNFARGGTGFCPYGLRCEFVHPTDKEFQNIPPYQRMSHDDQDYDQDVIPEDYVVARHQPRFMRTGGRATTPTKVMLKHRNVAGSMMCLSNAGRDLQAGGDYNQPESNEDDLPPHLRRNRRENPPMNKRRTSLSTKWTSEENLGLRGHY

[11] = molecular target: T6, Heat shock factor protein 1 (Mus musculus, UniProt P38532); test: decrease of HSF1-responsive luciferase luminescence – cell-based, NIH3T3, dose retest, confirmation (AID 2382); type: functional;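 further: NIH3T3 fibroblasts with HSF1-driven luciferase reporter stressed by proteasome inhibitor MG132; luminescence from HSF1-driven luciferase expression after 8 hours of MG132 stress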
T6 sequence (P38532 whole entry): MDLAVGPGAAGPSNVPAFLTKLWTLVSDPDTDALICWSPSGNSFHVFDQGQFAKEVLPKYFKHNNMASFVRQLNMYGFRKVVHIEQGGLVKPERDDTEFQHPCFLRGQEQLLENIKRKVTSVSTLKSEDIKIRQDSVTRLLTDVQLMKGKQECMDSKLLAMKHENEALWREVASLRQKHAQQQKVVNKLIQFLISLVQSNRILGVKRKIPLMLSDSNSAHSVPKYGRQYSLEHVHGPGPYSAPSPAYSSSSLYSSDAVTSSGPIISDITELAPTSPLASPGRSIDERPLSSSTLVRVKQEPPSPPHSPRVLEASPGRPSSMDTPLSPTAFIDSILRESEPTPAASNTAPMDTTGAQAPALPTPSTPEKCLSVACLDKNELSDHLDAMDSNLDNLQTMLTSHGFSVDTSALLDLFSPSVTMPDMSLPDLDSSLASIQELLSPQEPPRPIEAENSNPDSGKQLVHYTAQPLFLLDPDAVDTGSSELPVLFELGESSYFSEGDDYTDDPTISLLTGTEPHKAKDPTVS

[12] = molecular target: T7, RNA-binding protein pos-1 (Caenorhabditis elegans, UniProt G5EF15); test: disruptors of C. elegans POS-1 RNA interaction – biochemical, fluorescence polarization, dose response (AID 1964);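 further: purified POS-1 fused to maltose binding protein made in E. coli; potency of compounds blocking POS-1 binding to fluorescent RNA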
T7 sequence (G5EF15 whole entry): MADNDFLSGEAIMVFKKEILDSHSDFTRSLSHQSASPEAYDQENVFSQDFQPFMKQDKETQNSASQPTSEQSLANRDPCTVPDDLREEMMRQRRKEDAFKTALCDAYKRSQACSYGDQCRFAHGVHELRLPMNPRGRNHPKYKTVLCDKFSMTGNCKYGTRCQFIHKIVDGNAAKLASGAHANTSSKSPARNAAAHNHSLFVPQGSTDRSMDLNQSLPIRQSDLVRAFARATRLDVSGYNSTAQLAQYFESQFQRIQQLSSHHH

[13] = THP-1 cell cytotoxicity, dose response, cytotoxicity control for non-replicating M. tuberculosis project (AID 489025); type: functional
Nonstructural protein 1 = Nonstructural protein 1 (Influenza A virus, UniProt Q194T2); type: functional, Influenza A virus (A/California/07/2009(H1N1))
Chain of Nonstructural protein 1 (Q194T2 whole entry): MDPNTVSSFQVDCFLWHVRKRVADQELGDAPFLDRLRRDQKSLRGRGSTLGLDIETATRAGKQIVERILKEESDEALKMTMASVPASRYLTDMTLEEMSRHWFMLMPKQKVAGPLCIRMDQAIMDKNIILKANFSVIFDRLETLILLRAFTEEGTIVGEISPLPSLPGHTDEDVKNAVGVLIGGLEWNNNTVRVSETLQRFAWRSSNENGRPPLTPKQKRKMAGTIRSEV

[14] = Vero E6 cell cytotoxicity, dose response, cytotoxicity control for non-replicating M. tuberculosis project, secondary assay (AID 492998); type: functional, VeroE6; details: Vero C1008
cells = type: functional
[15] = toxicity to human hepatoma HepG2 cells – cell-based, cherry-picked samples, cytotoxicity control, dose response (AID 1159577); type: functional
[16] = P. falciparum Dd2 growth inhibitors, dose response, SYBR Green, cherry-picked samples (AID 1159567); type: functional, cell-based

Cc1noc(C)c1COc1ccc(CC(=O)NCc2ccccc2)cc1
IC50 [1]: > 80 µM (inactive)

O=C(Oc1ccc2ccc(=O)oc2c1)c1cccs1
IC50 (Coagulation factor XII): 7.8 µM (active)

Cc1ccc(N)c(N)c1
AC50 (Cytochrome P450 3A4): 25.1 µM (inconclusive)

CC1CCCN(C(=O)C2CCCN(S(=O)(=O)c3cccc4nsnc34)C2)C1 (stereo unspecified)
IC50 (Coagulation factor XII): > 50 µM (inactive)

COc1ccc(Br)cc1CNC(=O)C1CCCN(c2nc3ccccc3o2)C1 (stereo unspecified)
IC50 (Estrogen receptor): > 50 µM (not active)

O=C(Nc1ccc(Br)cc1)C1CC(O)CN1C(=O)Oc1ccccc1 (stereo unspecified)
AC50 (Escherichia coli): 42.7 µM (active)

CCCOC(=O)c1cc(-c2ccc(/C=C3/C(=O)N(C)C(=O)C(C#N)=C3C)o2)ccc1Cl
IC50 (Estrogen receptor beta [2]): 10.3 µM (not active) | IC50 (Estrogen receptor beta [3]): > 50 µM (not active)

O=C(Nc1ccsc1C(=O)NC1CCCCC1)c1ccccc1
AC50 (Escherichia coli): 26 µM (active)

CCc1ccc(/C=C2\SC(=S)N(CCC(=O)Nc3cc(C)on3)C2=O)cc1
IC50 [4]: > 80 µM (inactive)

Cc1ccc(NC(=O)Cn2c(=O)oc3cc(S(=O)(=O)N4CCC(C)CC4)ccc32)cc1C
AC50 (INS1): 8.95 µM (active) | EC50 [5]: 5.17 µM (active) | IC50 (SUMO-activating enzyme): 24.4 µM (active)

COCCNC(=O)CSCc1nc(-c2ccc(SC)cc2)oc1C
IC50 [4]: > 80 µM (inactive)

CCOCC(=O)Nc1ccc(S(=O)(=O)Nc2ncccn2)cc1
IC50 (Coagulation factor XII): > 50 µM (inactive)

CC1(C)Oc2ccc(C(=O)NC3CCCC3)cc2N(CC(=O)NC2CCCC2)C1=O
IC50 (Coagulation factor XII): > 50 µM (inactive)

CC(=O)N1CC=CC1(CC(C)C)C(=O)NCC1CC1 (stereo unspecified)
AC50 (Cytochrome P450 3A4): 31.6 µM (inconclusive)

Cc1ccc2c(c1)COc1c3ccc(C(=O)O)cc3nn1-2
AC50 [6]: 2.23 µM (active) | IC50 [1]: > 80 µM (inactive)

COC(=O)c1cccc(C23CC4(C2)[C@H](CN(Cc2ccc(-c5ccccc5)cc2)[C@@H]4c2ccccc2)C3c2ccccc2)c1 (stereo partly specified)
AC50 (Cytochrome P450 3A4): 15.8 µM (inconclusive)

O=C(CCCN1C(=O)/C(=C/c2ccccc2Cl)SC1=S)Nc1ccccn1
IC50 [4]: > 80 µM (inactive)

O=C(c1cccc(F)c1)N1CCN(C(=O)c2cc3ncc(Br)cn3n2)CC1
IC50 (Estrogen receptor beta [2]): 1.16 µM (not active) | IC50 (Estrogen receptor beta [3]): 11.5 µM (active) | IC50 (Estrogen receptor): 33.4 µM (not active)

Cc1cc(C(=O)N2CC=C(c3ccccc3)CC2)c2ccccc2n1
EC50 (BJ [7]): 86.7 µM (active) | EC50 [8]: 0.653 µM (active) | EC50 (BJ [9]): 1.32 µM (active) | IC50 [1]: > 80 µM (inactive)

CCN1CCc2nc(NC(=O)Cc3ccc4c(c3)OCCO4)sc2C1
IC50 (Estrogen receptor): 28.8 µM (active)

NC1=C(c2nc3ccccc3[nH]2)C(=O)CN1c1ccc(CC(=O)O)cc1
IC50 (Estrogen receptor beta [2]): < 0.023 µM (not active) | EC50 [10]: 1.59 µM (active) | EC50 [11]: > 195 µM (not active) | IC50 (Estrogen receptor beta [3]): 25.9 µM (active) | EC50 [12]: 5.25 µM (inconclusive)

O=C(Nc1nc(-c2ccccn2)cs1)c1ccc([N+](=O)[O-])o1
AC50 [6]: 10.8 µM (active) | CC50 [13]: 9.27 µM (active) | IC50 (Nonstructural protein 1): 11.7 µM (active) | AC50 (INS1): 2.11 µM (active) | CC50 [14]: 4.61 µM (active) | IC50 (cells): 4.38 µM (active)

CN(CC(=O)NCCN1CCOCC1)S(=O)(=O)c1ccc(Cl)cc1
AC50 (Escherichia coli): 23.2 µM (active)

O=C(Nc1cc(F)ccc1F)N1CC(=O)N2[C@H](CO)[C@@H](c3ccc(C#CC4CCCCC4)cc3)[C@@H]2C1
AC50 [15]: 40.3 µM (active) | AC50 [16]: 13.3 µM (active)

Cc1ccccc1S(=O)(=O)N1CCCCN2[C@H](CO)[C@H](c3ccc(-c4ccccc4)cc3)[C@H]2C1
AC50 [15]: 8.53 µM (active) | AC50 [16]: 1.05 µM (active)

COc1ccc2c(=O)c(-c3ccccc3)coc2c1
AC50 (Cytochrome P450 3A4): 39.8 µM (inconclusive)
